Laboratory results: ChEMBL document CHEMBL6120981, “Optimisation of a novel series of ENaC inhibitors, leading to the selection of the long-acting inhaled clinical candidate ETD001, a potential new treatment for cystic fibrosis” (Eur J Med Chem, 2025)
Activity calls are given as the source filed them. No cut-off for these calls is given here.

What was measured:
[1] = Inhibition of ENaC in human Primary bronchial epithelial cell; format: cell-based
[2] = Lipophilicity, log D of the compound; format: physicochemical; conditions: octanol/water
Ovis aries [3] = test: (§1) Mucociliary clearance activity in sheep mucociliary clearance model assessed as effective dose administered as inhalation pre-administered for 4 to 6 hrs followed by aerosolized technetium-labeled sulfur colloid (99mTc-Sc , 20 mCi) addition by Scintigraphic imaging based analysis; format: functional; conditions: time 4-6 hrs
[4] = Drug uptake in male Sprague-Dawley rat Bronchoalveolar lavage assessed as fold decrease BAL level at 0.3 mg/kg, IT measured upto 6 hrs by LC-MS/MS analysis; format: ADME, organism-based; conditions: in vivo, other
[5] = Drug uptake in male Sprague-Dawley rat Bronchoalveolar lavage assessed as decrease BAL level at 0.3 mg/kg, IT measured after 6 hrs by LC-MS/MS analysis relative to control; format: ADME, organism-based; conditions: in vivo, other
[6] = Plasma protein binding in human; format: ADME, cell-free; conditions: read-out: PPB (converted)
[7] = Plasma protein binding in rat; format: ADME, cell-free; conditions: read-out: PPB (converted)
[8] = Plasma protein binding in dog; format: ADME, cell-free, Canis lupus familiaris; conditions: read-out: PPB (converted)
Cytochrome P450 = test: Inhibition of CYP450 (unknown origin); format: ADME, protein assay; conditions: human
[9] = biological target: Voltage-gated inwardly rectifying potassium channel KCNH2 (Homo sapiens, UniProt Q12809); test: Inhibition of human ERG at 30 uM by automated patch clamp method; format: toxicity
Sequence of Voltage-gated inwardly rectifying potassium channel KCNH2 (Q12809 whole entry): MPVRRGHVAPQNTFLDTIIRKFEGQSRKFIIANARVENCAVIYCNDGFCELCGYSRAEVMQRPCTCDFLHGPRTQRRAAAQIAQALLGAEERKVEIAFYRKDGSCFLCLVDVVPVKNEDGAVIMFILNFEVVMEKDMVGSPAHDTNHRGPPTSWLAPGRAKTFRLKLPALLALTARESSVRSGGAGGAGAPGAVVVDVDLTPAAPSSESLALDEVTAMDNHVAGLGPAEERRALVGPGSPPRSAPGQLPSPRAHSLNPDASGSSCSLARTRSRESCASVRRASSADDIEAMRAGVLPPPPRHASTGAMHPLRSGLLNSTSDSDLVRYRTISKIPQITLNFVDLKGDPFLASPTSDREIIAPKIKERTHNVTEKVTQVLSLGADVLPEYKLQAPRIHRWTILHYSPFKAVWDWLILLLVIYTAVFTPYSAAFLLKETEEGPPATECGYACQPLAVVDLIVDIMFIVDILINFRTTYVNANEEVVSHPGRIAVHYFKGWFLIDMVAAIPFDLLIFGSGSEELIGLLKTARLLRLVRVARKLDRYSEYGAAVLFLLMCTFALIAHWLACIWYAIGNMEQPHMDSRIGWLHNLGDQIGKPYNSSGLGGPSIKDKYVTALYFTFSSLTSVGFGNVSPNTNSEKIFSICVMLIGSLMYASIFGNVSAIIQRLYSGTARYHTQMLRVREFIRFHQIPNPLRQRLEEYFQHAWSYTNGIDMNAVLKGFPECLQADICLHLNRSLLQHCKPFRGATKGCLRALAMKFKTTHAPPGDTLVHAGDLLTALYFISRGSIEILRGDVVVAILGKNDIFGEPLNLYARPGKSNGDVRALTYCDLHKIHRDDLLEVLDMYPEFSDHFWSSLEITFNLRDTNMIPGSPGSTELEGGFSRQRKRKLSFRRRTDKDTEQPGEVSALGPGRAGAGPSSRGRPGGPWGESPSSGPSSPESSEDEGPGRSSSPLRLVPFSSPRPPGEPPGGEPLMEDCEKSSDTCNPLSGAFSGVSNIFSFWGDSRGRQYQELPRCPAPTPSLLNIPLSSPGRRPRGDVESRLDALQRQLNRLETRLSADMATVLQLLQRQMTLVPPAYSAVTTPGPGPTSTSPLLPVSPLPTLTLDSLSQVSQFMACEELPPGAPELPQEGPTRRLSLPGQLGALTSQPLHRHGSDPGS

[10] = biological target: Voltage-dependent L-type calcium channel subunit alpha-1C (Homo sapiens, UniProt Q13936); test: Inhibition of Cav1.2 (unknown origin) at 10 uM by automated patch clamp method
Sequence of Voltage-dependent L-type calcium channel subunit alpha-1C (Q13936 whole entry): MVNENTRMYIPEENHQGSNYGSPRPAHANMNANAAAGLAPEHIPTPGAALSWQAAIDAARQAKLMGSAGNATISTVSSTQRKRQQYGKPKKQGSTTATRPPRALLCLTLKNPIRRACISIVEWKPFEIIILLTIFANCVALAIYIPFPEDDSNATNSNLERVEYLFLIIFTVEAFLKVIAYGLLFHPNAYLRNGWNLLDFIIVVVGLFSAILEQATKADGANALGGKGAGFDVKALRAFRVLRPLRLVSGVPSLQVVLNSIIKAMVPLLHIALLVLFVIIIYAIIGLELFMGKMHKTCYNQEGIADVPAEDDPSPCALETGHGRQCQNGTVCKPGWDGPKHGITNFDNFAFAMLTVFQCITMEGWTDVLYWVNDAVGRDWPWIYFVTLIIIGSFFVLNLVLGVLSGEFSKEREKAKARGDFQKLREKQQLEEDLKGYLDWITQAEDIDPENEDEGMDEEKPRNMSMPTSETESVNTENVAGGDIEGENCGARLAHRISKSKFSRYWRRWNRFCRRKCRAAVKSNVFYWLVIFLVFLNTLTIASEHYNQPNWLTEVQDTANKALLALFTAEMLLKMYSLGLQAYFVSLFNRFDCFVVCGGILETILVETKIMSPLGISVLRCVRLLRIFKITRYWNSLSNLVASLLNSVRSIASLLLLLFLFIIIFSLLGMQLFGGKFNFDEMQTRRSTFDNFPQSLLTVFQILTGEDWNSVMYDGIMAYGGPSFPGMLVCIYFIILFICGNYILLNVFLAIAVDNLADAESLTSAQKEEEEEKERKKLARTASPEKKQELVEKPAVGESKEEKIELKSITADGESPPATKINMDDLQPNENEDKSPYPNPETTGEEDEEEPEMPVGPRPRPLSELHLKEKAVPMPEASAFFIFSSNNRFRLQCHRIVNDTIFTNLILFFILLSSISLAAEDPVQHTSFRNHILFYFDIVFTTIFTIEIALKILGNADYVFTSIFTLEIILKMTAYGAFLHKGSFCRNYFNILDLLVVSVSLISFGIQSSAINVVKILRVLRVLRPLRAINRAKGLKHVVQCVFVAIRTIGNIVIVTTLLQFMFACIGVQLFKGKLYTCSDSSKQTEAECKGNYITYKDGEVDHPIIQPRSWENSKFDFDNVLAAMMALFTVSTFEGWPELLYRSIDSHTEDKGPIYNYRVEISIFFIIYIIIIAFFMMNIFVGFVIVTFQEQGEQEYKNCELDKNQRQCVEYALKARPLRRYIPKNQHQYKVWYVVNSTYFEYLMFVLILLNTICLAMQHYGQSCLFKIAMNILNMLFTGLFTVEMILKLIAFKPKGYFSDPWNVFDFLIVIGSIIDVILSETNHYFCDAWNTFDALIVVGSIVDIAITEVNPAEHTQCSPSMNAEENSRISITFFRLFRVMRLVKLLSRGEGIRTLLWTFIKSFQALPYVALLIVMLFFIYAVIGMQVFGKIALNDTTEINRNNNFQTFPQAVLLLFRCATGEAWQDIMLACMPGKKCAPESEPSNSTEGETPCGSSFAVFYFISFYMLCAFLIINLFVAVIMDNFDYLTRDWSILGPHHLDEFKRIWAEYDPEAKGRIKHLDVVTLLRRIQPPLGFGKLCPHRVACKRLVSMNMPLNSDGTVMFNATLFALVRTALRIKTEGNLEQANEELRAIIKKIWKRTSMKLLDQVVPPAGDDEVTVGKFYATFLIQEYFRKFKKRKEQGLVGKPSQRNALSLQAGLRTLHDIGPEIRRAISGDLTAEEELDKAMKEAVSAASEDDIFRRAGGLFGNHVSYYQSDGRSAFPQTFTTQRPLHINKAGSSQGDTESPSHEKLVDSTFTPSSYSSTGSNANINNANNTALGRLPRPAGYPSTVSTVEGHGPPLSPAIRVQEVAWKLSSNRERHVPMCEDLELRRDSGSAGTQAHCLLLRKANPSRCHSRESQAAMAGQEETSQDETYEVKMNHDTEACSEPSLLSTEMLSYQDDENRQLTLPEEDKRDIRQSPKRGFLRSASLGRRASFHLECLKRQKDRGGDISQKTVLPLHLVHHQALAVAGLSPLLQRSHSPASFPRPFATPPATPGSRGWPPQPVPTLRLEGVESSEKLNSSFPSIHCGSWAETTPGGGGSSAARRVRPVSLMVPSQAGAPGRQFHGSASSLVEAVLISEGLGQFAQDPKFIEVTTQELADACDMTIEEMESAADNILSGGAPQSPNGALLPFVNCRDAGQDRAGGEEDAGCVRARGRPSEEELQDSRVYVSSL

[11] = biological target: Sodium channel protein type 5 subunit alpha (Homo sapiens, UniProt Q14524); test: Inhibition of Nav1.5 (unknown origin) 10 uM by automated patch clamp method
[12] = biological target: Potassium voltage-gated channel subfamily A member 5 (Homo sapiens) (UniProt P22460); test: Inhibition of Kv1.5 (unknown origin) at 10 uM by automated patch clamp method
Sequence of Potassium voltage-gated channel subfamily A member 5 (Homo sapiens) (P22460 whole entry): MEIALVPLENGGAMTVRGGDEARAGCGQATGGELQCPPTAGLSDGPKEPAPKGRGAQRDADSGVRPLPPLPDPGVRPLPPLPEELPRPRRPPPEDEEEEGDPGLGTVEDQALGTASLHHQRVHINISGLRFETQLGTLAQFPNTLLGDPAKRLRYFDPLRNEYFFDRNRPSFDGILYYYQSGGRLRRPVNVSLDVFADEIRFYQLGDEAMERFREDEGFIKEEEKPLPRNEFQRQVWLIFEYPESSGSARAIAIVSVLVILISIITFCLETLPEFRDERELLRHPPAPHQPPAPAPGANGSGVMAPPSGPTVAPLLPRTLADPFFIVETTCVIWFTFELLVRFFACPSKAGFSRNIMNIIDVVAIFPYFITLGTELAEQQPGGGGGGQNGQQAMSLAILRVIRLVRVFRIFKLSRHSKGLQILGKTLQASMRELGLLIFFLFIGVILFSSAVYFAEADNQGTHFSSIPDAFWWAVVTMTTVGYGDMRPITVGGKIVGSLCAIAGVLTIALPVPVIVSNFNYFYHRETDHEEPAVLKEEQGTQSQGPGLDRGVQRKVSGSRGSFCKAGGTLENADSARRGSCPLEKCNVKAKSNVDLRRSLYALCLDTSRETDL

[13] = Mutagenicity in Salmonella typhimurium strains by Ames test; format: toxicity; conditions: salmonella enterica subsp. enterica serovar typhimurium
Ovis aries [14] = test: as §1, with “assessed as improvement in lung residence time” for “effective dose”; format: functional, organism-based; conditions: time 4-6 hrs
[15] = Drug uptake in male Sprague-Dawley rat lung at 0.3 mg/kg, IT measured upto 6 hrs by LC-MS/MS analysis; format: ADME, organism-based; conditions: in vivo, other

Row | Structure (SMILES) | IC50 [1] | logD [2] | ED100 (Ovis aries [3]) | other results
1 | CCc1cnc(N)c(C(=O)NCc2n(CC)c3cc(OC)ccc3[n+]2C)n1 | 0.224 µM | 0.9 | – | –
2 | CCn1c(CNC(=O)c2nc3cc[nH]c3nc2N)[n+](CC)c2ccc(C(=O)NC3CCN(C[C@H](O)[C@@H](O)[C@H](O)[C@H](O)CO)CC3)cc21.O=C(O)C(F)(F)F.O=C([O-])C(F)(F)F | 0.0071 µM | 1 | 0.031 mg/kg | –
3 | CCn1c(CNC(=O)c2nc3cc[nH]c3nc2N)[n+](CC)c2ccc(OCCNC(=N)N)cc21 | 0.0025 µM | – | – | –
4 | CCn1c(CNC(=O)c2nc3cc[nH]c3nc2N)[n+](CC)c2ccc(C(=O)N3CCC(N(C[C@H](O)[C@@H](O)[C@H](O)[C@H](O)CO)C[C@H](O)[C@@H](O)[C@H](O)[C@H](O)CO)CC3)cc21.O=C(O)C(F)(F)F.O=C([O-])C(F)(F)F | 0.057 µM | 2.8 | 0.009 mg/kg | fold change (FC) [4]: 3; Drug uptake [5]: 13%; fraction unbound [6]: 0.9; fraction unbound [7]: 0.9; fraction unbound [8]: 0.9; inhibition (INH) (Cytochrome P450): Not_active; inhibition (INH) [9]: Not_active; inhibition (INH) [10]: Not_active; inhibition (INH) [11]: Not_active; inhibition [12]: inactive; Activity [13]: Non-toxic
5 | CCn1c(CNC(=O)c2nc3cc[nH]c3nc2N)[n+](CC)c2ccc(OC)cc21 | 0.0025 µM | 0.9 | – | –
6 | CCn1c(CNC(=O)c2nc3cc[nH]c3nc2N)[n+](CC)c2ccc(C(=O)N3CCC(N)CC3)cc21.Cl.[I-] | 0.011 µM | 0.6 | 0.025 mg/kg | Activity (Ovis aries [14]): Active
7 | CCn1c(CNC(=O)c2nc3cc[nH]c3nc2N)[n+](CC)c2ccc(C(=O)NCCCN(C[C@H](O)[C@@H](O)[C@H](O)[C@H](O)CO)C[C@H](O)[C@@H](O)[C@H](O)[C@H](O)CO)cc21.O=C(O)C(F)(F)F.O=C([O-])C(F)(F)F | 0.018 µM | 1 | 0.026 mg/kg | –
8 | CCn1c(CNC(=O)c2nc3cc[nH]c3nc2N)[n+](CC)c2ccc(C(=O)NC3CCNCC3)cc21 | 0.0072 µM | – | – | –
9 | CCn1c(CNC(=O)c2nc(C)cnc2N)[n+](C)c2ccc(OC)cc21 | 0.004 µM | < 1 | – | –
10 | CCn1c(CNC(=O)c2nc3ccn(C)c3nc2N)[n+](C)c2ccc(OC)cc21 | > 7.7 µM | 0.8 | – | –
11 | CCn1c(CNC(=O)c2nc3cc[nH]c3nc2N)[n+](CC)c2ccc(C(=O)NCCCN)cc21 | 0.015 µM | 0 | – | –
12 | CCn1c(CNC(=O)c2nc(Br)cnc2N)[n+](C)c2ccc(OC)cc21.[I-] | 0.003 µM | 0.8 | > 0.101 mg/kg | fold change (FC) [4]: 200; Drug uptake [15]: Not_active
13 | CCn1c(CNC(=O)c2nc(Cl)cnc2N)[n+](C)c2ccc(OC)cc21 | 0.002 µM | 0.9 | – | –
14 | CCn1c(CNC(=O)c2nc3cc[nH]c3nc2N)[n+](CC)c2ccc(C(=O)NCCN3CCC(N)CC3)cc21 | 0.01 µM | – | – | –
15 | CCn1c(CNC(=O)c2nc3cc[nH]c3nc2N)[n+](CC)c2ccc(OCCCN(C[C@H](O)[C@@H](O)[C@H](O)[C@H](O)CO)C[C@H](O)[C@@H](O)[C@H](O)[C@H](O)CO)cc21.O=C(O)C(F)(F)F.O=C([O-])C(F)(F)F | 0.022 µM | 1 | 0.019 mg/kg | –
16 | CCn1c(CNC(=O)c2nc3cc[nH]c3nc2N)[n+](CC)c2ccc(OCCCN)cc21 | 0.007 µM | 1.5 | – | –
17 | CCn1c(CNC(=O)c2nc3cc[nH]c3nc2N)[n+](CC)c2ccc(OCCN)cc21 | 0.014 µM | 1 | – | –
18 | CCn1c(CNC(=O)c2nc3cc[nH]c3nc2N)[n+](CC)c2ccc(C(=O)NCCN3CCC(N(C[C@H](O)[C@@H](O)[C@H](O)[C@H](O)CO)C[C@H](O)[C@@H](O)[C@H](O)[C@H](O)CO)CC3)cc21.O=C(O)C(F)(F)F.O=C([O-])C(F)(F)F | 0.038 µM | – | 0.025 mg/kg | –
19 | CCn1c(CNC(=O)c2nc3cc[nH]c3nc2N)[n+](CC)c2ccc(OCCN(C[C@H](O)[C@@H](O)[C@H](O)[C@H](O)CO)C[C@H](O)[C@@H](O)[C@H](O)[C@H](O)CO)cc21 | 0.051 µM | – | – | –
20 | CCn1c(CNC(=O)c2nc3cc[nH]c3nc2N)[n+](C)c2ccc(OC)cc21.O=C[O-] | 0.0077 µM | 1 | 0.158 mg/kg | Activity (Ovis aries [14]): Active; fold change (FC) [4]: 50; Drug uptake [15]: Active
